{"source": "paper PMC2131780", "about": "“A Tale of Switched Functions: From Cyclooxygenase Inhibition to M-Channel Modulation in New Diphenylamine Derivatives” (PLoS ONE, 2007)", "key": {"[1]": {"tested_on": "rat hippocampal neurons", "experiment": "Current-clamp recording of cultured hippocampal neurons", "format": "cell-based", "method": "For hippocampal neuronal cultures, Sprague-Dawley rat embryos (E18) were removed by caesarian section and their hippocampi were dissected out. The tissue was digested with papain for 20 min, triturated to a single-cell suspension, and plated at a density of 40,000 cells per ml on a substrate of bovine collagen type IV and 100 µg/ml poly-L-lysine in 13 mm diameter glass coverslips of a 24-multiwell plate. The culture medium consisted of Modified Eagle's Medium containing 5% horse serum (Biological Industries, Beit HaEmek, Israel), B-27 neuronal supplement (Invitrogen, Carlsbad, CA), 100 U/ml penicillin, 100 µg/ml streptomycin, and 2 mM glutamine. D-glucose was supplemented to a final concentration of 6 g/l. Cytosine-1-D-arabinofuranoside (5 µM) was added after 5 days to arrest glial cell proliferation. For electrophysiological recordings hippocampal neurons were used at 10–14 days in culture. All cultures were maintained at 37°C in humidified air containing 5% CO2.\nFor current-clamp recordings in primary cultured neurons, the patch pipettes were filled with (in mM): 135 KCl, 1 K2ATP, 1 MgATP, 2 EGTA, 1.1 CaCl2, 5 glucose, 10 HEPES, adjusted with KOH at pH 7.4 (315 mOsm). […] A liquid junction potential of about −15.6 mV was measured between the intracellular and saline solutions and corrected on-line. […]"}, "[2]": {"target": "T1, Kv7.2/3 K+ channels (M-channels) (Homo sapiens, UniProt O43525+O43526)", "T1 construct": "expressed in transfected cells; host or cells: CHO cells", "T1 sequence (O43526 whole entry)": "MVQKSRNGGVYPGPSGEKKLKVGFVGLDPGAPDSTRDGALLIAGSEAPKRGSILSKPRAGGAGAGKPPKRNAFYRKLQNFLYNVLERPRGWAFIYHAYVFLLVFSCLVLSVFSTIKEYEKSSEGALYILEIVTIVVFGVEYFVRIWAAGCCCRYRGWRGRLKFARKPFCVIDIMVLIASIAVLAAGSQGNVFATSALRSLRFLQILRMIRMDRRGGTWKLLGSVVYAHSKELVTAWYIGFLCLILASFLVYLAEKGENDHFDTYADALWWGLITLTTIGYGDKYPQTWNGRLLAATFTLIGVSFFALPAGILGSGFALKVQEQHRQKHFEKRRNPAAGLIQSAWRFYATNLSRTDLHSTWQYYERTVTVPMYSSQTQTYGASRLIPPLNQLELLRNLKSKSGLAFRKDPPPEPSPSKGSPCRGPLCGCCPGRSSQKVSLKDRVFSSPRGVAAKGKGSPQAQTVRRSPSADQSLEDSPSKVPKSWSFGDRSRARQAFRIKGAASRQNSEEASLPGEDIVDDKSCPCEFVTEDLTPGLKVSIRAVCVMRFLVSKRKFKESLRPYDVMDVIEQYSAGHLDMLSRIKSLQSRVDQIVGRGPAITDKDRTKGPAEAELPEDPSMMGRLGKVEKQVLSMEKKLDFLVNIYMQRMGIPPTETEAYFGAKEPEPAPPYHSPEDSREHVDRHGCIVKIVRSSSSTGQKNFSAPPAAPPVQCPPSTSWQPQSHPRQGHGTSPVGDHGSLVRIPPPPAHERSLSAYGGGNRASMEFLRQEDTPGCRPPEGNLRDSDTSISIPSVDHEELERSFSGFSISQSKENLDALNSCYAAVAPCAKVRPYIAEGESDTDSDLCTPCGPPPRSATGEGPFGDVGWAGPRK", "T1 sequence (O43525 whole entry)": "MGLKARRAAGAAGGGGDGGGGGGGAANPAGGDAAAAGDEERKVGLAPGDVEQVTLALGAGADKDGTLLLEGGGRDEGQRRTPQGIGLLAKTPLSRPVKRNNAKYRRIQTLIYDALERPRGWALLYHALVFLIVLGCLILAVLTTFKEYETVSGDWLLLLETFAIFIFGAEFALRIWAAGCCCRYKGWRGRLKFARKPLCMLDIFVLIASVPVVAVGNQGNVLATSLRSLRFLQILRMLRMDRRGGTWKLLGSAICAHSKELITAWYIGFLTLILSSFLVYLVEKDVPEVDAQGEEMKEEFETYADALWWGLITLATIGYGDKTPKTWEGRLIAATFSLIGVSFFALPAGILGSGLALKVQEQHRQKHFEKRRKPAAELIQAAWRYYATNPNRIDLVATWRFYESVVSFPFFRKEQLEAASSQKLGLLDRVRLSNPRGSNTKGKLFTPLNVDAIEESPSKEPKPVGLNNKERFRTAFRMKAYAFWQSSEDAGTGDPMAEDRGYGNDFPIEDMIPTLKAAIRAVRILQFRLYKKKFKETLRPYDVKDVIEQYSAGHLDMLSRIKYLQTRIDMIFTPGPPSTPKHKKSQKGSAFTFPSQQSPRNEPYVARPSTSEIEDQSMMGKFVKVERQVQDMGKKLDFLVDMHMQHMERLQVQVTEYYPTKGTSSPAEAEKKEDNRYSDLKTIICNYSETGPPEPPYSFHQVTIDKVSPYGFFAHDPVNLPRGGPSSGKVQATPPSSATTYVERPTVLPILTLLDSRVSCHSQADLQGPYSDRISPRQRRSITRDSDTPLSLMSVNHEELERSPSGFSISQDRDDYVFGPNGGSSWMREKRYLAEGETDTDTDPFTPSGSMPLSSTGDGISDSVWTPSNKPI", "experiment": "Whole-cell patch-clamp of recombinant Kv7.2/3 channels in CHO cells", "format": "cell-based", "settings": "for V50 of Kv7.2/3 activation: n = 5; for fold increase in Kv7.2/3 current amplitude: step −90 to −50 mV", "method": "Chinese hamster ovary (CHO) cells were grown in Dulbecco's modified Eagle's medium (DMEM) supplemented with 2 mM glutamine, 10% fetal calf serum and antibiotics. Briefly, 40,000 cells seeded on poly-D-lysine-coated glass coverslips (13 mm diameter) in a 24-multiwell plate were transfected with pIRES-CD8 (0.5 µg) as a marker for transfection, and with Kv7.2 (0.5 µg) and Kv7.3 (0.5 µg). For electrophysiology, transfected cells were visualized approximately 40 hours following transfection, using anti-CD8 antibody-coated beads. Transfection was performed using Fugene 6 (Roche, Indianapolis IN, USA) according to the manufacturer's protocol.\nVoltage-clamp recordings in CHO cells were performed, using the whole-cell configuration of the patch-clamp technique. Signals were amplified using an Axopatch 200B patch-clamp amplifier (Molecular Devices, Sunnyvale, CA), sampled at 2 kHz and filtered at 800 Hz via a 4-pole Bessel low pass filter. […] The patch pipettes were pulled from borosilicate glass (Warner Instrument Corp, USA) with a resistance of 2–5 MΩ. For K^+ current recordings in CHO cells, the intracellular pipette solution contained (in mM): 130 KCl, 1 MgCl2, 5 K2ATP, 5 EGTA, 10 HEPES, adjusted with KOH to pH 7.4 (290 mOsm). The extracellular solution contained (in mM): 140 NaCl, 4 KCl, 1.8 CaCl2, 1.2 MgCl2, 11 glucose, 5.5 HEPES, adjusted with NaOH to pH 7.4 (310 mOsm). Series resistances (3–13 MΩ) were compensated (75–90%) and periodically monitored.\nData analysis was performed using the Clampfit program (pClamp 9.2, Molecular Devices), Microsoft Excel (Microsoft) and Prism 4.0 (GraphPad). Chord conductance (G) was calculated by using the following equation: [drawing 1] where I corresponds to the current amplitude measured at the end of the pulse and Vrev, the calculated reversal potential. G was estimated at various test voltages V and then, normalized to a maximal conductance value, Gmax. Activation curves were fitted by one Boltzmann distribution: [drawing 2] where V50 is the voltage at which the current is half-activated and s is the slope factor. All data were expressed as mean±SEM. Statistically significant differences were assessed by Student's t-test. Analysis of sEPSCs and sIPSCs was done using the Clampfit program (pClamp 9.2, Molecular Devices) and included evaluation of the individual events as well as the average event amplitude and the integral of the event (total charge transfer)."}}, "data": [{"smiles": "O=C(Cc1cc([N+](=O)[O-])ccc1Nc1c(Cl)cccc1Cl)OCCO", "note": "[Compound 15]", "values": [{"measurement": "number of evoked action potentials, hippocampal neurons", "setting": "[1]; 25 µM, 75–200 pA for 400 ms", "value": "2.1±0.5"}, {"measurement": "hyperpolarization of hippocampal neurons", "setting": "[1]; exposed to compound", "value": "−8.5", "unit": "mV"}, {"measurement": "left-shift of Kv7.2/3 activation curve", "setting": "[2]; 10 µM", "value": "−11", "unit": "mV"}, {"measurement": "V50 of Kv7.2/3 activation", "setting": "[2]; 10 µM", "value": "−43.6±9.0", "unit": "mV"}, {"measurement": "fold increase in Kv7.2/3 current amplitude", "setting": "[2]; 10 µM", "value": 3.2, "unit": "fold"}, {"measurement": "activation kinetics t1/2 of Kv7.2/3", "setting": "[2]; 25 µM, at −20 mV", "value": "0.171 ± 0.029", "unit": "s"}, {"measurement": "deactivation time constant τdeact of Kv7.2/3", "setting": "[2]; 25 µM, tail currents at −60 mV", "value": "284 ± 43", "unit": "ms"}, {"measurement": "left-shift of Kv7.2/3 activation curve", "setting": "[2]; 50 µM", "value": "−21", "unit": "mV"}, {"measurement": "V50 of Kv7.2/3 activation", "setting": "[2]; 50 µM", "value": "−53.5±9.3", "unit": "mV"}, {"measurement": "fold increase in Kv7.2/3 current amplitude", "setting": "[2]; 50 µM", "value": 9.1, "unit": "fold"}, {"measurement": "left-shift of Kv7.2/3 activation curve", "setting": "[2]; 200 µM", "value": "−31", "unit": "mV"}, {"measurement": "V50 of Kv7.2/3 activation", "setting": "[2]; 200 µM", "value": "−63.1±2.0", "unit": "mV"}, {"measurement": "ΔV50 (mV), left-shift in half-activation potential", "setting": "[2]; Kv7.2/3 in CHO cells", "value": "−31.0", "unit": "mV"}, {"measurement": "M-channels (Kv7.2/Kv7.3) effect (opener / blocker / inactive)", "setting": "[2]; Kv7.2 and Kv7.3 coexpressed in CHO cells", "value": "opener"}, {"measurement": "EC50", "setting": "[2]; concentration-dependent left-shift ΔV50, sigmoidal fit, read-out: M-channel opener potency EC50", "value": 22, "unit": "µM"}]}]}
